Reference: publication PMC6422423, “Constitutively active BRS3 is a genuinely orphan GPCR in placental mammals” (PLoS Biology, 2019)

Assays:
[1] = system: BRS3 receptors in placental mammals; test: ERK1/2 phosphorylation, placental pooled; format: cell-based, human, mouse, dog, and aardvark; conditions: 1,000 nM peptide, 0/2/5 min, HEK293
Method: (§1) For ERK1/2 phosphorylation, HEK293 cells were seeded in 24-well plates and transfected with GRPR, NMBR, BRS3, mutants of different species’ BRS3, or an empty vector plasmid, pcDNA3.1-V5-His plasmid (300 ng). […] Each sample with an equal amount of protein was mixed with 6×SDS sample buffer, boiled for 5 min, and separated on 10% SDS-polyacrylamide gel electrophoresis (PAGE) before transferring the proteins onto a PVDF membrane. The membranes were then blocked at room temperature for 1 h with 5% milk powder in Tris-buffered saline-Tween (TBST), followed by subsequent incubation at 4°C overnight in TBST containing the different primary antibodies (1:1,000 dilution). After washing three times (10 min each time) with TBST, the membranes were incubated for 1 h in TBST containing the secondary antibodies (1:2,000 dilution), followed by washing three times (10 min each time) with TBST, prior to detection by chemiluminescence.

[2] = molecular target: placental mammalian BRS3 (hBRS3, mBRS3, and aBRS3); test: Radioligand binding, placental mammals pooled; parameters: species or system human, mouse, aardvark; conditions: for Ki: BRS3s in placental mammals; for Direct binding (in words): hBRS3, mBRS3, aBRS3, transfected HEK293 cells
Method: (§2) HEK293 cells were seeded in a 10-cm tissue culture dish at a density of 10^6 cells per dish and grown overnight at 37°C in growth medium. The following morning, 5 μg of different species’ BRS3 plasmids were transfected. After 6 h, the medium was replaced with growth medium. Cells were maintained at 37°C in a 5% CO2 atmosphere and used 48 h later for binding assays. The positive control group included transfected GRPR and NMBR; the test group consisted of transfected BRS3 from different species. Then, [^125I]-Tyr^42-GRP and [^125I]-Tyr-NMB were used as the ligands to assess affinity to the various receptors. […] The cell concentration was adjusted to between 0.05 and 4 × 10^6 cells/ml for each receptor such that less than 20% of the total added radioactive ligand was bound during the incubation, and the results were compared to cells transfected with GRPR or NMBR adjusted in concentration to bind a similar amount of ligand. After the incubation, 100 μl aliquots were added to 1.5-ml microfuge tubes, which contained 100 μl of binding buffer to determine the total radioactivity. The bound tracer was separated from unbound tracer by pelleting the cells through the binding buffer by centrifugation at 10,000g in a Microfuge E (Beckman) for 3 min. The supernatant was aspirated, and the pelleted cells were rinsed twice with a washing buffer that contained 1% (w/v) BSA in PBS. The amount of radioactivity bound to the cells was measured in a Cobra II Gamma counter (Packard Instruments). Binding was expressed as the percentage of total radioactivity that was associated with the cell pellet. All binding values represented saturable binding; nonsaturable binding was <15% of the total binding in all experiments. Each point was measured in duplicate, and each experiment was replicated at least four times. […] All the experiment data were calculated using 1 pM ligand-treated as 100% control.

[3] = system: chicken BRS3 (cBRS3); test: Intracellular calcium assay (WT and mutants); format: cell-based, Gallus gallus; conditions: 10 nM peptide, HEK293, Fluo8, cBRS3
Method: (§3) Intracellular calcium was measured using the non-wash calcium assay Fluo8 kit (ab112129, Abcam) according to the manufacturer’s instructions. Briefly, HEK293 cells were seeded in 24-well plates and were transfected with GRPR, NMBR, BRS3, or the empty vector plasmid pcDNA3.1-V5-His (300 ng) and incubated overnight at 37°C with 5% CO2. The next day, the cells were replated into a 96-well assay plate (black plate and clear bottom). After 12 h, growth media were aspirated, and calcium dye was added. […] The basal fluorescence intensity was recorded 15 times at 1 Hz for […]. The results were normalized to the average basal fluorescence intensity in ratio, and the peak response was used for the result calculation. Calcium fold was calculated using no stimulation data as standard value.

[4] = system: BRS3 receptors of placental mammals; test: Luciferase reporter, GRP/NMB stimulated, placental pooled; format: cell-based, human, mouse, dog, and aardvark; conditions: CRE/NFAT-RE/SRF-RE/SRE reporters; 0/10/100/1,000 nM, 12 h, HEK293
Method: To detect constitutive activity of BRS3, HEK293 cells were seeded in 24-well plates and cotransfected with the CRE/NFAT-RE/SRF-RE/SRE luciferase reporter plasmids (50 ng), the BRS3 from different species, or BRS3 mutants with different doses (10 ng/50 ng/150 ng); after 24 h, cells were further incubated in serum-free media for another 12 h before luciferase assay. As for peptide supplementation treatment, HEK293 cells were cotransfected with the CRE/NFAT-RE/SRF-RE/SRE luciferase reporter plasmids (50 ng) and various genes (300 ng) of the bombesin receptor family. […] Luciferase activities were determined using luciferase assay kits (Beyotime, Shanghai, China) and normalized to β-galactosidase activity. All experiments were performed at least three times in triplicates. HEK293 cells transfected with pcDNA were used as a blank control in all luciferase experiments, and the fold was calculated compared to blank control.

[5] = system: BRS3 receptors in nonplacental vertebrates; test: ERK1/2 phosphorylation, nonplacental pooled; format: cell-based, koala, platypus, chicken, turtle, frog, and spotted gar; conditions: 1,000 nM peptide, 0/2/5 min, HEK293
Method: as §1

[6] = molecular target: turtle BRS3 (tBRS3); test: Radioligand binding (competition); parameters: species or system Chrysemys picta; conditions: transfected HEK293 cells, 1 h 21°C, pH 7.4, mean ± SE, at least three experiments
Method: as §2

[7] = system: turtle BRS3 (tBRS3); test: Intracellular calcium assay (WT and mutants); format: cell-based, Chrysemys picta; conditions: 10 nM peptide; for Calcium fold: HEK293, Fluo8, tBRS3; for Intracellular Ca2+, mutants vs wild type (in words): tBRS3 Q127R, P205S, and R294H, each
Method: as §3

[8] = molecular target: spotted gar BRS3 (sBRS3); test: Radioligand binding (competition); parameters: species or system Lepisosteus oculatus; conditions: transfected HEK293 cells, 1 h 21°C, pH 7.4, mean ± SE, at least three experiments
Method: as §2

[9] = system: turtle BRS3 (tBRS3); test: ERK1/2 phosphorylation (WT and mutants); format: cell-based, Chrysemys picta
Method: as §1

[10] = molecular target: T1, GRPR (Homo sapiens, UniProt P30550); test: Radioligand binding (competition); conditions: [125I]-Tyr42-GRP
T1 construct: HA; expressed in transfected cells; host or cells: HEK293
Method: HEK293 cells were seeded in a 10-cm tissue culture dish at a density of 10^6 cells per dish and grown overnight at 37°C in growth medium. The following morning, 5 μg of different species’ BRS3 plasmids were transfected. After 6 h, the medium was replaced with growth medium. Cells were maintained at 37°C in a 5% CO2 atmosphere and used 48 h later for binding assays. The positive control group included transfected GRPR and NMBR; the test group consisted of transfected BRS3 from different species. Then, [^125I]-Tyr^42-GRP and [^125I]-Tyr-NMB were used as the ligands to assess affinity to the various receptors. […] After the incubation, 100 μl aliquots were added to 1.5-ml microfuge tubes, which contained 100 μl of binding buffer to determine the total radioactivity. […] The amount of radioactivity bound to the cells was measured in a Cobra II Gamma counter (Packard Instruments). Binding was expressed as the percentage of total radioactivity that was associated with the cell pellet. […] Each point was measured in duplicate, and each experiment was replicated at least four times. […] All the experiment data were calculated using 1 pM ligand-treated as 100% control.

[11] = system: chicken BRS3 (cBRS3); test: ERK1/2 phosphorylation (WT and mutants); format: cell-based, Gallus gallus; conditions: cBRS3 P205S; exception to the significant effects
Method: as §1

T1 sequence (P30550 whole entry, species assumed): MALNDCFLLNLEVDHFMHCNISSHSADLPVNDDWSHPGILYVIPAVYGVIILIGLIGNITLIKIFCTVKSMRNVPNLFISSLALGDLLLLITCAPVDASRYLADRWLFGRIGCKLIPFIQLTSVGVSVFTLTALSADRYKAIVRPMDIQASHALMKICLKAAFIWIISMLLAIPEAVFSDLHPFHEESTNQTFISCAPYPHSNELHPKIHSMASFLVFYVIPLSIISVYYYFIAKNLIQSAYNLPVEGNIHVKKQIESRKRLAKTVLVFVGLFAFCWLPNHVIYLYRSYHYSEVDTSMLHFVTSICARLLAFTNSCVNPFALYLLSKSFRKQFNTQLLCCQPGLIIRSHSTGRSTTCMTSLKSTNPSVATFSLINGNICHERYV

For “GSHWAVGHLM-NH2 [GRP, gastrin-releasing peptide]”, the “ERK phosphorylation (in words)” value [1] was “could not be activated”, the Ki [2] was greater than 1000 nM and the “Direct binding (in words)” value [2] was “no binding was detected”. The Calcium fold ([3]; replicate 1) was 5.1641 fold, the Calcium fold ([3]; replicate 2) was 5.5593 fold and the Calcium fold ([3]; replicate 3) was 5.8165 fold. For the same substance, the “Luciferase stimulation (in words)” value [4] was “stimulation of luciferase units cannot be detected”, the “ERK phosphorylation (in words)” value [5] was “increase in the levels of phosphorylated ERK” and the IC50 ([6]; 50 pM [125I]-Tyr42-GRP) was 0.14 nM. It also gave an IC50 ([6]; 50 pM [125I]-Tyr-NMB) of 0.28 nM, a Calcium fold ([7]; replicate 1) of 5.1678 fold and a Calcium fold ([7]; replicate 2) of 5.2199 fold. The Calcium fold ([7]; replicate 3) was 5.5876 fold, the “Intracellular Ca2+, mutants vs wild type (in words)” value [7] was “remarkable decrease of cellular Ca^2+ ions” and the IC50 ([8]; 50 pM [125I]-Tyr42-GRP) was 0.17 nM. For the same substance, the IC50 ([8]; 50 pM [125I]-Tyr-NMB) was 0.54 nM, the “ERK phosphorylation, mutant (in words)” value ([9]; tBRS3 P205S) was “the effect is not obvious” and the “ERK phosphorylation, mutant (in words)” value ([9]; tBRS3 Q127R) was “almost could not be detected”. The “ERK phosphorylation, mutant (in words)” value ([9]; tBRS3 R294H) was “almost could not be detected”.

In the case of neuromedin B [NMB], the “ERK phosphorylation (in words)” value [1] is reported as “could not be activated”, the Ki [2] is reported as greater than 1000 nM and the “Direct binding (in words)” value [2] is reported as “no binding”. For the same substance, the “Luciferase stimulation (in words)” value [4] was “stimulation of luciferase units cannot be detected”, the “ERK phosphorylation (in words)” value [5] was “increase in the levels of phosphorylated ERK” and the IC50 ([6]; 50 pM [125I]-Tyr42-GRP) was 1.14 nM. The IC50 ([6]; 50 pM [125I]-Tyr-NMB) was 2.82 nM, the “Inhibition of GRPR–GRP binding (in words)” value [10] was “very low affinity” and the “Intracellular Ca2+, mutants vs wild type (in words)” value [7] was “remarkable decrease of cellular Ca^2+ ions”. For the same substance, the “ERK phosphorylation, mutant (in words)” value [11] was “excepting P205S of cBRS3 for ERK phosphorylation activated by NMB”, the IC50 ([8]; 50 pM [125I]-Tyr42-GRP) was 1.74 nM and the IC50 ([8]; 50 pM [125I]-Tyr-NMB) was 2.65 nM. For the same substance, the “ERK phosphorylation, mutant (in words)” value ([9]; tBRS3 P205S) was “the effect is not obvious”, the “ERK phosphorylation, mutant (in words)” value ([9]; tBRS3 Q127R) was “almost could not be detected” and the “ERK phosphorylation, mutant (in words)” value ([9]; tBRS3 R294H) was “almost could not be detected”.
